Source: ChEMBL document CHEMBL5576049, “Synthesis and cytotoxicity of novel 6,8,9-trisubstituted purine analogs against liver cancer cells” (Bioorg Med Chem Lett, 2024)
Calls of active or inactive are those of the source. The calls are words filed in the database; no cut-off is given here.

Tests used:
Type in all cases: functional, cell-based
HCT-116 = test: Cytotoxicity against human HCT-116 cells assessed as cell growth inhibition incubated for 72 hrs by SRB assay; conditions: for IC50: HCT-116, 72 h
SNU-398 = test: Cytotoxicity against human SNU-398 cells assessed as cell growth inhibition incubated for 72 hrs by SRB assay; conditions: SNU-398, 72 h
[1] = Cytotoxicity against human FOCUS cells assessed as cell growth inhibition incubated for 72 hrs by SRB assay
Mahlavu = test: Cytotoxicity against human Mahlavu cells assessed as cell growth inhibition incubated for 72 hrs by SRB assay
MCF7 = test: Cytotoxicity against human MCF7 cells assessed as cell growth inhibition incubated for 72 hrs by SRB assay; conditions: for IC50: MCF7, 72 h
Huh-7 = test: Cytotoxicity against human Huh-7 cells assessed as cell growth inhibition incubated for 72 hrs by SRB assay; conditions: for IC50: Huh-7, 72 h
SNU-182 = test: Cytotoxicity against human SNU-182 cells assessed as cell growth inhibition incubated for 72 hrs by SRB assay; conditions: SNU-182, 72 h
SNU-449 = test: Cytotoxicity against human SNU-449 cells assessed as cell growth inhibition incubated for 72 hrs by SRB assay; conditions: SNU-449, 72 h
SNU-423 = test: Cytotoxicity against human SNU-423 cells assessed as cell growth inhibition incubated for 72 hrs by SRB assay; conditions: SNU-423, 72 h
SNU-475 = test: Cytotoxicity against human SNU-475 cells assessed as cell growth inhibition by SRB assay
SNU-387 = test: Cytotoxicity against human SNU-387 cells assessed as cell growth inhibition incubated for 72 hrs by SRB assay; conditions: SNU-387, 72 h
Hep 3B2 = test: Cytotoxicity against human Hep3B cells assessed as cell growth inhibition incubated for 72 hrs by SRB assay
HepG2 = test: Cytotoxicity against human HepG2 cells assessed as cell growth inhibition incubated for 72 hrs by SRB assay; conditions: HepG2, 72 h
PLC = test: Cytotoxicity against human PLC cells assessed as cell growth inhibition incubated for 72 hrs by SRB assay

Row | SMILES | IC50 (HCT-116) [µM] | IC50 (MCF7) [µM] | IC50 (Huh-7) [µM] | Activity (HCT-116) | also measured
1 | Nc1nc(Cl)nc2c1ncn2[C@H]1C[C@H](O)[C@@H](CO)O1 [CLADRIBINE] | < 0.1 | 2.4 | 0.9 |  | IC50 (SNU-398): < 0.1 µM; IC50 [1]: < 0.1 µM; IC50 (Mahlavu): < 0.1 µM
2 | Clc1ccc(-c2nc3c(N4CCN(c5ccccc5)CC4)ncnc3n2C2CCCC2)cc1 | 5.8 | 19.8 | 23.2 |  | 
3 | Fc1ccc(-c2nc3c(N4CCN(c5ccc(C(F)(F)F)cc5)CC4)ncnc3n2C2CCCC2)cc1 | 13.5 | 32.4 | 11.4 |  | 
4 | Cc1ccc(N2CCN(c3ncnc4c3nc(-c3ccc(Br)cc3)n4C3CCCC3)CC2)cc1 | 52.3 | 24.8 | 28.4 |  | 
5 | COc1ccc(-c2nc3c(N4CCN(c5ccc(C(F)(F)F)cc5)CC4)ncnc3n2C2CCCC2)cc1 |  |  | 9.8 | inactive | Activity (MCF7): inactive
6 | Cc1ccc(-c2nc3c(N4CCN(c5ccc(C)cc5)CC4)ncnc3n2C2CCCC2)cc1 | 33.4 | 47.5 | 17.4 |  | 
7 | FC(F)(F)c1ccc(-c2nc3c(N4CCN(c5ccccc5)CC4)ncnc3n2C2CCCC2)cc1 | 25.3 | 25.9 | 7.6 |  | 
8 | Cc1ccc(N2CCN(c3ncnc4c3nc(-c3ccc(C(F)(F)F)cc3)n4C3CCCC3)CC2)cc1 | 46.2 | 30.1 | 16.1 |  | 
9 | Cc1ccc(-c2nc3c(N4CCN(c5ccccc5)CC4)ncnc3n2C2CCCC2)cc1 | 18.8 | 21.4 | 12.9 |  | 
10 | COc1ccc(-c2nc3c(N4CCN(c5ccc(Cl)cc5)CC4)ncnc3n2C2CCCC2)cc1 | 30.9 | 69.8 | 5.5 |  | 
11 | FC(F)(F)c1ccc(N2CCN(c3ncnc4c3nc(-c3ccc(Cl)cc3)n4C3CCCC3)CC2)cc1 |  | 30.3 | 19.4 | inactive | 
12 | FC(F)(F)c1ccc(-c2nc3c(N4CCN(c5ccc(Cl)c(Cl)c5)CC4)ncnc3n2C2CCCC2)cc1 |  | 7.2 | 35.1 | inactive | 
13 | Cc1ccc(-c2nc3c(N4CCN(c5ccc(C(F)(F)F)cc5)CC4)ncnc3n2C2CCCC2)cc1 | 34.3 | 26.2 | 13.1 |  | 
14 | COc1ccc(-c2nc3c(N4CCN(c5ccccc5)CC4)ncnc3n2C2CCCC2)cc1 | 42.3 |  | 57.1 |  | Activity (MCF7): inactive
15 | Clc1ccc(-c2nc3c(N4CCN(c5ccc(Cl)c(Cl)c5)CC4)ncnc3n2C2CCCC2)cc1 |  |  | 58.7 | inactive | Activity (MCF7): inactive
16 | FC(F)(F)c1ccc(-c2nc3c(N4CCN(c5ccc(Cl)cc5)CC4)ncnc3n2C2CCCC2)cc1 |  | 57.9 | 61.4 | inactive | 
17 | Cc1ccc(-c2nc3c(N4CCN(c5ccc(Cl)cc5)CC4)ncnc3n2C2CCCC2)cc1 |  |  | 61.8 | inactive | Activity (MCF7): inactive

Row | SMILES | IC50 (HCT-116) [µM] | IC50 (MCF7) [µM] | IC50 (Huh-7) [µM] | Activity (HCT-116) | also measured
18 | Fc1ccc(-c2nc3c(N4CCN(c5ccccc5)CC4)ncnc3n2C2CCCC2)cc1 | 13.7 | 68.2 | 11.4 |  | 
19 | Fc1ccc(-c2nc3c(N4CCN(c5ccc(Cl)cc5)CC4)ncnc3n2C2CCCC2)cc1 | 51.4 |  | 20.2 |  | Activity (MCF7): inactive
20 | FC(F)(F)c1ccc(N2CCN(c3ncnc4c3nc(-c3ccc(Br)cc3)n4C3CCCC3)CC2)cc1 | 58.5 | 17.4 | 58.1 |  | 
21 | Clc1ccc(-c2nc3c(N4CCN(c5ccc(Cl)cc5)CC4)ncnc3n2C2CCCC2)cc1 | 64.9 | 35.8 | 39 |  | 
22 | Brc1ccc(-c2nc3c(N4CCN(c5ccccc5)CC4)ncnc3n2C2CCCC2)cc1 | 28.8 | 15 | 11.1 |  | 
23 | Fc1ccc(-c2nc3c(N4CCN(c5ccc(Cl)c(Cl)c5)CC4)ncnc3n2C2CCCC2)cc1 | 50.6 |  | 30 |  | Activity (MCF7): inactive
24 | O=c1[nH]cc(F)c(=O)[nH]1 [FLUOROURACIL] | 4.1 |  |  |  | 
25 | COc1ccc(-c2nc3c(N4CCN(c5ccc(Cl)c(Cl)c5)CC4)ncnc3n2C2CCCC2)cc1 | 33.6 | 30.6 | 7.4 |  | 
26 | Clc1ccc(N2CCN(c3ncnc4c3nc(-c3ccc(Br)cc3)n4C3CCCC3)CC2)cc1 |  | 51.6 |  | inactive | Activity (Huh-7): inactive
27 | Clc1ccc(N2CCN(c3ncnc4c3nc(-c3ccc(Br)cc3)n4C3CCCC3)CC2)cc1Cl |  | 60.7 |  | inactive | Activity (Huh-7): inactive
28 | COc1ccc(-c2nc3c(N4CCN(c5ccc(C)cc5)CC4)ncnc3n2C2CCCC2)cc1 |  | 58.4 |  | inactive | Activity (Huh-7): inactive
29 | Cc1ccc(-c2nc3c(N4CCN(c5ccc(Cl)c(Cl)c5)CC4)ncnc3n2C2CCCC2)cc1 |  |  |  | inactive | Activity (MCF7): inactive; Activity (Huh-7): inactive
30 | Nc1nc(F)nc2c1ncn2[C@@H]1O[C@H](CO)[C@@H](O)[C@@H]1O [FLUDARABINE] |  |  | 28.4 |  | 
31 | Cc1ccc(N2CCN(c3ncnc4c3nc(-c3ccc(F)cc3)n4C3CCCC3)CC2)cc1 | 26.1 |  | 20.8 |  | Activity (MCF7): inactive
32 | FC(F)(F)c1ccc(-c2nc3c(N4CCN(c5ccc(C(F)(F)F)cc5)CC4)ncnc3n2C2CCCC2)cc1 | 10.8 | 6.1 | 9.3 |  | IC50 (SNU-182): 16.4 µM; IC50 (SNU-449): 60.6 µM; IC50 (SNU-423): 24.9 µM; IC50 (SNU-475): 17 µM; IC50 (SNU-387): 98.7 µM; IC50 (SNU-398): 19 µM; IC50 (Hep 3B2): 10.3 µM; IC50 (HepG2): 6.6 µM; IC50 [1]: 4.5 µM; IC50 (Mahlavu): 19.8 µM; IC50 (PLC): 99.1 µM
33 | Cc1ccc(N2CCN(c3ncnc4c3nc(-c3ccc(Cl)cc3)n4C3CCCC3)CC2)cc1 | 6.5 | 21.6 | 15.7 |  | 
